From patent publication US20230021448A1, “COMPOUNDS AND COMPOSITIONS FOR TREATING CONDITIONS ASSOCIATED WITH STING ACTIVITY” (IFM Due, Inc., priority 2019, published 2023) come the findings set out here.

Molecules are shown by their SMILES.

The target in this test is T1, STING (Homo sapiens, UniProt Q86WV6, G230A/H232R/R293Q/R71H).
T1 construct: host or cells: THP1-Dual KO-IFNAR2 cells
T1 sequence (Q86WV6 whole entry R71H/G230A/H232R/R293Q): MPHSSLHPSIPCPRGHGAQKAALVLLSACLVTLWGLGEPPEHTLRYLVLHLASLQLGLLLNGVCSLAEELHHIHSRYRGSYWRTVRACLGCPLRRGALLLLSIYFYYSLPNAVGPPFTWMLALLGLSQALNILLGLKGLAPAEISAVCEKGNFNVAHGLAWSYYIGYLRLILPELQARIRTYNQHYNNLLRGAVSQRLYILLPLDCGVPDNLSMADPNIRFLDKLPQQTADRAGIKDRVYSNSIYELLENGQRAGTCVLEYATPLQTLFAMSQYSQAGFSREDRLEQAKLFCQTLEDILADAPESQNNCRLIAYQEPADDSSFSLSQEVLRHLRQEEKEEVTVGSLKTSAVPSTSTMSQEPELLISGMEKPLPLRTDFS
Kind of test: STING reporter assay: luciferase reporter activity in THP1-Dual KO-IFNAR2 cells stimulated with 2'3'cGAMP. The test is classed as cell-based. The note with it: 2′3′cGAMP 15 μM final, 24h, read-out: hSTING: EC50. The essentials: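 THP1-Dual KO-IFNAR2 cells (2×10E6 cells/mL) incubated with compounds at 0.0017-100 μM final plus Lipofectamine-transfected 2′3′cGAMP (15 μM final), 24 h at 37 °C, 5% CO2. Luciferase in supernatant read by QUANTI-Luc luminescence; EC50 derived.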
In general terms: Reporter assays use an easily measured gene product as a stand-in for the process of interest.
As a reminder, the EC50 is the concentration at which the effect is half-maximal. `C#Cc1cc(NC(=O)C(=O)Nc2c[nH]c3cc(F)c(F)cc23)ccc1Cl` [Compound 295, N′-(4-chloro-3-ethynylphenyl)-N-(5,6-difluoro-1H-indol-3-yl)ethanediamide]: the EC50 lay within 0.2 to 1 µM.

As for `O=C(NCC1CCCC(F)(F)C1)C(=O)Nc1c[nH]c2cc(F)c(F)cc12` (stereo not shown) [Compound 150, N1-(5,6-difluoro-1H-indol-3-yl)-N2-((3,3-difluorocyclohexyl)methyl)oxalamide], the EC50 is 0.2 to 1 µM.

Consider `CC[C@H]1CC[C@@H](NC(=O)C(=O)Nc2c[nH]c3cc(F)c(F)cc23)CC1` [Compound 185], for which the EC50 is 0.2 to 1 µM. Then `O=C(Nc1c[nH]c2cc(F)c(F)cc12)C(=O)NC1CCN(Cc2ccccc2)C2(CCCCC2)C1` (stereo not shown) [Compound 256], with 1 to 5 µM.

Take `O=C(Nc1c[nH]c2cc(F)c(F)cc12)C(=O)N1CCC2(CCCCC2)CC1` [Compound 252]: the EC50 lay in the range of 1 to 5 µM. As to `O=C(NCC(F)(F)c1ccccc1)C(=O)Nc1c[nH]c2cc(F)c(F)cc12` [Compound 155, N1-(5,6-difluoro-1H-indol-3-yl)-N2-(2,2-difluoro-2-phenylethyl) oxalamide], the EC50 was in the range of 0.2 to 1 µM.

`O=C(Nc1ccc(C(F)(F)F)cc1)C(=O)Nc1c[nH]c2ccc(Br)cc12` [Compound 302]: the 50% effective concentration (EC50) lay within 0.04 to 0.2 µM. Then `O=C(NCc1cccc(OC(F)(F)F)c1)C(=O)Nc1c[nH]c2cc(F)c(F)cc12` [Compound 166, N1-(5,6-difluoro-1H-indol-3-yl)-N2-(3-(trifluoromethoxy)benzyl)oxalamide], with 0.2 to 1 µM. On to `O=C(NCCOc1cccnc1)C(=O)Nc1c[nH]c2cc(F)c(F)cc12` [Compound 290, N-(5,6-difluoro-1H-indol-3-yl)-N′-[2-(pyridin-3-yloxy)ethyl] ethanediamide], for which the 50% effective concentration (EC50) is 5 to 100 µM. With `O=C(Nc1c[nH]c2cc(F)c(F)cc12)C(=O)N[C@H]1CC[C@@H](Oc2ccc(C(F)(F)F)cc2)CC1` [Compound 249], the concentration for a half-maximal effect (EC50) lay within 1 to 5 µM. As to `O=C(Nc1c[nH]c2cc(F)c(F)cc12)C(=O)NC1COc2ccccc2C1` (stereo not shown) [Compound 301, N-(5,6-difluoro-1H-indol-3-yl)-N′-(3,4-dihydro-2H-1-benzopyran-3-yl)ethanediamide], the EC50 lay within 0.2 to 1 µM. Then `O=C(NCc1ccc(C(F)(F)F)cn1)C(=O)Nc1c[nH]c2cc(F)c(F)cc12` [Compound 119, N-(5,6-difluoro-1H-indol-3-yl)-N′-[[5-(trifluoromethyl)pyridin-2-yl]methyl]ethanediamide], with 0.04 to 0.2 µM; and `O=C(Nc1c[nH]c2cc(F)c(F)cc12)C(=O)N[C@H]1C[C@H](Oc2cncc(C(F)(F)F)c2)C1` [Compound 201], with 0.2 to 1 µM; and `O=C(Nc1c[nH]c2cc(F)c(F)cc12)C(=O)NC1CCOC2(CCCC2)C1` (single isomer, unassigned) [Compound 244], with 1 to 5 µM. As for `COc1ccc(CNC(=O)C(=O)Nc2c[nH]c3cc(F)c(F)cc23)cc1C(F)(F)F` [Compound 159, N1-(5,6-difluoro-1H-indol-3-yl)-N2-(4-methoxy-3-(trifluoromethyl)benzyl)oxalamide], the EC50 was in the range of 0.2 to 1 µM.

Regarding `O=C(Nc1c[nH]c2cc(F)c(F)cc12)C(=O)NC(c1ccccc1)C(F)(F)F` (stereo not shown) [Compound 312, N1-(5,6-difluoro-1H-indol-3-yl)-N2-(2,2,2-trifluoro-1-phenylethyl)oxalamide], the EC50 lay within 0.2 to 1 µM. To `O=C(Nc1c[nH]c2cc(F)ccc12)C(=O)NC1CCC(Oc2ccc(C(F)(F)F)cn2)CC1` (stereo not shown) [Compound 225, N-(6-fluoro-1H-indol-3-yl)-N′-(4-((5-(trifluoromethyl)pyridin-2-yl)oxy)cyclohexyl)oxalamide] belongs 0.04 to 0.2 µM; to `C[C@H](NC(=O)C(=O)Nc1c[nH]c2cc(F)c(F)cc12)c1ccc(C(F)(F)F)cn1` [Compound 298, N-(5,6-difluoro-1H-indol-3-yl)-N′-[(1S)-1-[5-(trifluoromethyl)pyridin-2-yl]ethyl]ethanediamide], 0.2 to 1 µM; to `O=C(NCc1ccc(-c2ccccc2C(F)(F)F)cc1)C(=O)Nc1c[nH]c2cc(F)c(F)cc12` [Compound 108], 0.2 to 1 µM.
